The source of these data is patent US8461150B2, “Chalcone linked pyrrolo[2,1-c][1, 4]benzodiazepine hybrids as potential anticancer agents and process for the preparation thereof” (Council of Scientific & Industrial Research, priority 2008, dated 2013).

SMILES strings stand for the structures.

Experiment [1] concerns NCI-H226 (Non-small cell lung). In words: Cytotoxicity in selected cancer cell lines (SRB, 48 h). Format: cell-based, human. The protocol: (§1) Biological Activity: The in vitro cell line studies were carried out at the National Cancer Institute, Maryland, USA.
(§2) 6b, 6c, 6g, 10a and 10b were evaluated for in vitro anticancer activity against sixty human tumour cells derived from nine cancer types (leukemia, non-small-cell lung, colon, CNS, melanoma, ovarian, prostate, renal and breast cancer) as shown in (Table 1 and 2). For the compound, dose response curves for each cell line were measured at a minimum of five concentrations at 10 fold dilutions. A protocol of 48 h continuous drug exposure was used and a sulforhodamine B (SRB) protein assay was used to estimate cell viability or growth. The concentration causing 50% cell growth inhibition (GI50), total cell growth inhibition (TGI 0% growth) and 50% cell death (LC50, −50% growth) compared with the control was calculated.
(§3) Each cancer type represents the average of six to nine different cancer cell lines. In vitro evaluation of cytotoxic activity. The compound 6b, 6c, 6g 10a and 10b were evaluated for in vitro anticancer activity against nine human tumour cells derived from six cancer types (leukemia, colon, prostate, melanoma, ovarian, lung, cervix and breast cancer) as shown in Table 3. […] Compounds 6b, 6c, 6g, 10a and 10b have been evaluated for their in vitro cytotoxicity in selected human cancer cell lines of colon (Colo205), lung (NCI-H522, NCI-H226), colon (colo-205), prostate (DU145, PC3), ovarian (IGROV1, HT1080), and breast (MDA-MB-435, Zr-75-1), melanoma (LOXMIVI, VACC-62, SK-MEL-5) origin. A protocol of 48 h continuous drug exposure has been used and an […] has been used to estimate cell viability or growth. The results are expressed as percent of cell growth determined relative to that of untreated control cells

Experiment [2] relates to CCRF-CEM (Leukemia). The description is as above. Format: cell-based, human. The protocol:
as §1, §2, §3

Experiment [3] concerns MALME-3M (Melanoma). Described as above. Format: cell-based, human. The protocol:
as §1, §2, §3

Experiment [4] deals with SW-620 (Colon). The experiment is described as above. Format: cell-based, human. The protocol: as §1, §2, §3
Experiment [5] deals with NCI/ADR-RES (Breast). Described as above. Format: cell-based, human. The protocol: as §1, §2, §3
Experiment [6] concerns U251 (CNS). The description is as above. Format: cell-based, human. On the procedure: as §1, §2, §3
The subject of experiment [7] is LOX IMVI (Melanoma). The description is as above. Format: cell-based, human. The protocol:
as §1, §2, §3

Experiment [8] relates to MDA-MB-231/ATCC (Breast). The description is as above. Format: cell-based, human. On the procedure: as §1, §2, §3
Experiment [9] relates to ACHN (Renal). The description is as above. Format: cell-based, human. On the procedure: as §1, §2, §3
The subject of experiment [10] is SF-539 (CNS). The description is as above. Format: cell-based, human. The protocol: as §1, §2, §3
Experiment [11] deals with SK-MEL-5 (Melanoma). The experiment is described as above. Format: cell-based, human. The protocol: as §1, §2, §3
The subject of experiment [12] is Prostate cancer cell lines. In words: NCI in vitro anticancer screen, SRB assay, 48 h, panel average. Format: cell-based, human. To be noted: average of six to eight cell lines, 48 h exposure. On the procedure:
as §1
(§4) Cytotoxicity: • The compounds 6b) 7-Methoxy-8-{4-[1-(4-fluorophenyl)-3-(4-hydroxy-3-methoxyphenyl)-2-propen-1-one]butyl}-oxy-(11aS)-1,2,3,11a-5H-pyrrolo[2,1-c][1,4]benzodiazepin-5-one; • (6c) 7-Methoxy-8-{5-[1-(4-fluorophenyl)-3-(4-hydroxy-3-methoxyphenyl)-2-propen-1-one]pentyl}-oxy-(11aS)-1,2,3,11a-5H-pyrrolo[2,1-c][1,4]benzodiazepin-5-one; • (6g) 7-Methoxy-8-{3-[1-(2-hydroxyphenyl)-3-(4-hydroxy-3-methoxyphenyl)-2-propen-1-one]propyl}-oxy-(11aS)-1,2,3,11a-5H-pyrrolo[2,1-c][1,4]benzodiazepin-5-one; • (10a) 7-Methoxy-8-{3-[3-(4-hydroxy-3-methoxyphenyl)-1-(2,4-dimethyl-3-quinolyl)-2-propen-1-one]propyl}-oxy-(11aS)-1,2,3,11a-5H-pyrrolo[2,1-c][1,4]benzodiazepin-5-one • (10b) 7-Methoxy-8-{4-[3-(4-hydroxy-3-methoxyphenyl)-1-(2,4-dimethyl-3-quinolyl)-2-propen-1-one]butyl}-oxy-(11aS)-1,2,3,11a-5H-pyrrolo[2,1-c][1,4]benzodiazepin-5-one; were evaluated for in vitro anticancer activity against […] derived from […] (leukemia, ovarian, renal, melanoma, CNS, colon, prostate, lung, cervix and breast cancer) as shown in (Table 1, 2 and 3)
as §2
(§5) Each cancer type represents the average of six to eight different cancer cell lines.
A general note: In SRB staining, fixed cells bind dye roughly in proportion to their protein.

Experiment [13] concerns Non-small cell lung cancer cell lines. The description is as above. Format: cell-based, human. To be noted: average of six to eight cell lines, 48 h exposure. On the procedure:
as §1, §4, §2, §5

For experiment [14], the system named is Leukemia cancer cell lines. The description is as above. To be noted: average of six to eight cell lines, 48 h exposure. Format: cell-based, human. The protocol: as §1, §4, §2, §5
Experiment [15] relates to CNS cancer cell lines. The experiment is described as above. Format: cell-based, human. The settings on record: average of six to eight cell lines, 48 h exposure. The protocol: as §1, §4, §2, §5
In experiment [16] the test system is Renal cancer cell lines. The description is as above. To be noted: average of six to eight cell lines, 48 h exposure. Format: cell-based, human. On the procedure: as §1, §4, §2, §5
The subject of experiment [17] is Melanoma cancer cell lines. Described as above. Format: cell-based, human. The settings on record: average of six to eight cell lines, 48 h exposure. The protocol:
as §1, §4, §2, §5

Experiment [18] concerns Breast cancer cell lines. Described as above. Format: cell-based, human. The settings on record: average of six to eight cell lines, 48 h exposure. The protocol: as §1, §4, §2, §5
In experiment [19] the test system is Colon cancer cell lines. The experiment is described as above. Format: cell-based, human. The settings on record: average of six to eight cell lines, 48 h exposure. The protocol: as §1, §4, §2, §5
Experiment [20] relates to Ovarian cancer cell lines. The description is as above. Format: cell-based, human. The settings on record: average of six to eight cell lines, 48 h exposure. The protocol: as §1, §4, §2, §5
Experiment [21] relates to duplex-form calf thymus DNA (CT-DNA). In words: Thermal denaturation studies with calf thymus DNA. Format: binding. The settings on record: [PBD]:[DNA] molar ratio 1:5, CT-DNA 100 μM, ligand 20 μM, pH 7.00; for ΔTμ (° C.) after incubation at 37 °C. for 0 h: 0 h incubation; for ΔTμ (° C.) after incubation at 37 °C. for 18 h: 18 h incubation. On the procedure: These compounds have also been subjected to thermal denaturation studies with duplex-form calf thymus DNA (CT-DNA) using an modification of a reported procedure. Working solutions in aqueous buffer (10 mM NaH2PO4/Na2HPO4, 1 mM Na2EDTA, pH 7.00+0.01) containing CT-DNA (100 μm in phosphate) and the PBD (20 μm) have been prepared by addition of concentrated PBD solutions in DMSO to obtain a fixed [PBD]/[DNA] molar ratio of 1:5. The DNA-PBD solutions have been incubated at 37° C. for 0 and 18 h prior to analysis. Samples have been monitored at 260 nm using a Beckman DU-800 spectrophotometer fitted with high performance temperature controller, and heated at 1° C. min^−1 in the 40-110° C. range. DNA helix→coil transition temperatures (Tm) have been obtained from the maxima in the d(A260)/d T derivative plots. Drug-induced alterations in DNA melting behavior are given by: ΔTm=Tm(DNA+PBD)−Tm(DNA alone), where the Tm value for the PBD-free CT-DNA is 68.5±0.01.

A word on the GI50: it is the concentration that inhibits growth by half. A higher GI50 goes with lower sensitivity of the cells. For `COc1cc(C=CC(=O)c2c(C)nc3ccccc3c2C)ccc1OCCCCOc1cc2c(cc1OC)C(=O)N1CCC[C@H]1C=N2` [10b, 7-Methoxy-8-{4-[3-(4-hydroxy-3-methoxyphenyl)-1-(2,4-dimethyl-3-quinolyl)-2-propen-1-one]butyl}-oxy-(11aS)-1,2,3,11a-5H-pyrrolo[2,1-c][1,4]benzodiazepin-5-one], the GI50 was 10.1 µM in [1]; 13.4 µM in experiment [2]; 36.2 µM in experiment [3]; 25.9 µM in [4]; 16.9 µM in [5]; 15.7 µM in experiment [6]. Moreover, the 50% growth inhibitory concentration (GI50) in [7] was found to be 15 µM; in [8], 14.2 µM; in experiment [9], 36.1 µM; in experiment [10], 33.7 µM; in [11] it was 23.3 µM. The “Log GI50 (concentration in mol/L causing 50% growth inhibition)” value was −5.85 mol/L in [12]; −6.87 mol/L in [13]; −6.94 mol/L in experiment [14]; −6.16 mol/L in experiment [15]; −6.17 mol/L in [16]; −6.59 mol/L in experiment [17]. Also, the results for the “Log GI50 (concentration in mol/L causing 50% growth inhibition)” value in [18], in experiment [19] and in experiment [20] were −6.52 mol/L, −6.41 mol/L and −5.28 mol/L, respectively. The “ΔTμ (° C.) after incubation at 37 °C. for 0 h” value in experiment [21] amounted to 4.3 °C. Further, in experiment [21], the “ΔTμ (° C.) after incubation at 37 °C. for 18 h” value was 4.9 °C.

Regarding `COc1cc(C=CC(=O)c2ccc(F)cc2)ccc1OCCCCOc1cc2c(cc1OC)C(=O)N1CCC[C@H]1C=N2` [6b, 7-Methoxy-8-{4-[1-(4-fluorophenyl)-3-(4-hydroxy-3-methoxyphenyl)-2-propen-1-one]butyl}-oxy-(11aS)-1,2,3,11a-5H-pyrrolo[2,1-c][1,4]benzodiazepin-5-one], the 50% growth inhibitory concentration (GI50) in [1] was determined as 14 µM; in experiment [2], 16 µM; in experiment [3], 18.2 µM; in experiment [4] it was 13.5 µM; in [5], 13.8 µM; in experiment [6] it was 14.8 µM. For the same compound, the concentration for 50% growth inhibition (GI50) in [7] was determined as 10 µM; in [8], 11.6 µM; in [9] it was 43.4 µM; in [10] it was 29.6 µM; in experiment [11], 10 µM. Besides, the “Log GI50 (concentration in mol/L causing 50% growth inhibition)” value in experiment [12] is −5.63 mol/L; in [13] it was −6.84 mol/L; in [14], −6.84 mol/L; in experiment [15], −5.91 mol/L; in [16] it was −6.67 mol/L; in experiment [17], −6.65 mol/L. Besides, the “Log GI50 (concentration in mol/L causing 50% growth inhibition)” value in experiment [18] was −6.57 mol/L; in [19], −6.53 mol/L; in experiment [20] it was −5.56 mol/L. Besides, the “ΔTμ (° C.) after incubation at 37 °C. for 0 h” value in [21] came out at 2.2 °C. In addition, the “ΔTμ (° C.) after incubation at 37 °C. for 18 h” value in experiment [21] came out at 2.6 °C.

As for `COc1cc(C=CC(=O)c2c(C)nc3ccccc3c2C)ccc1OCCCOc1cc2c(cc1OC)C(=O)N1CCC[C@H]1C=N2` [10a, 7-Methoxy-8-{3-[3-(4-hydroxy-3-methoxyphenyl)-1-(2,4-dimethyl-3-quinolyl)-2-propen-1-one]propyl}-oxy-(11aS)-1,2,3,11a-5H-pyrrolo[2,1-c][1,4]benzodiazepin-5-one], the GI50 in [1] came to 10.8 µM; in experiment [2] it was 12.5 µM; in [3] it was 24.2 µM; in experiment [4] it was 26.6 µM; in [5] it was 17.6 µM; in [6] it was 19.8 µM. Also, the 50% growth inhibitory concentration (GI50) was 18.2 µM in experiment [7]; 19.9 µM in experiment [8]; 32 µM in [9]; 30.3 µM in [10]; 20.9 µM in [11]. For the same compound, the “Log GI50 (concentration in mol/L causing 50% growth inhibition)” value in experiment [12] was −5.05 mol/L; in [13], −6.79 mol/L; in experiment [14] it was −6.88 mol/L; in experiment [15] it was −6.61 mol/L; in [16], −6.39 mol/L; in [17], −6.38 mol/L. The figures for the “Log GI50 (concentration in mol/L causing 50% growth inhibition)” value in [18], in experiment [19] and in [20] were −6.31 mol/L, −6.76 mol/L and −5.10 mol/L, respectively. In [21], the “ΔTμ (° C.) after incubation at 37 °C. for 0 h” value amounted to 4.0 °C. Also, the “ΔTμ (° C.) after incubation at 37 °C. for 18 h” value in experiment [21] amounted to 4.6 °C.
